Measurements published in patent US8017612B2, “Piperazine compound and use thereof as a HCV polymerase inhibitor” (priority 2006, dated 2011).

Experiments:
[1] = target: T1, HCV polymerase (NS5B) type 1a (Hepatitis C virus genotype 1a, UniProt P26664); assay: Assay of enzyme (HCV polymerase) inhibitory activity, type 1a enzyme; assay type: biochemical, HCV type 1a (cloned from the blood of patients); conditions: HCV polymerase inhibitory activity IC50, 1a, type 1a enzyme
T1 construct: made in house; host or cells: Escherichia coli (by the 'similar method' of the 1b enzyme)
Procedure, shortened: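 IC50 values derive from radioactivity of newly synthesized RNA with versus without test compound. The enzyme was C-terminally truncated type 1a NS5B, 1.5 μg/ml, run 60 min at 25° C with 3H-UTP-labelled nucleotides.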

[2] = target: T2, HCV polymerase (NS5B) type 1b (Hepatitis C virus genotype 1b, UniProt P26663); assay: Assay of enzyme (HCV polymerase) inhibitory activity, type 1b enzyme; assay type: biochemical, HCV BK strain (type 1b); conditions: HCV polymerase inhibitory activity IC50, 1b, type 1b enzyme
T2 construct: a region encoding NS5B (J Virol 1991 March, 65(3), 1105-13, 544 amino acids after deletion of 47 amino acids on the C-terminal); 6xHis (C); made in house; host or cells: Escherichia coli
Procedure, shortened: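 Polymerase activity was followed as radiolabelled UTP incorporation by E. coli-expressed, His-tagged NS5B of HCV type 1b lacking its last 47 residues. Conditions: 2 μM UTP, 50 μM other NTPs, Mg2+ buffer at pH 7.5, 25 °C for 60 min. Inhibition relative to compound-free reactions gave IC50.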

SMILES	IC50 [1] [µM]	IC50 [2] [µM]
CC(=O)N1CCN(S(=O)(=O)c2ccc(OC(F)(F)F)cc2)[C@@H](C(=O)NCCCc2cccc(O)c2)C1 [Example 716, (R)-4-acetyl-1-(4-trifluoromethoxy-benzenesulfonyl)-piperazine-2-carboxylic acid [3-(3-hydroxy-phenyl)-propyl]-amide]	> 1	> 1
CC(=O)N1CCN(S(=O)(=O)c2ccc(OC(F)(F)F)cc2)[C@@H](C(=O)NCCCc2ccc(O)cc2)C1 [Example 717, (R)-4-acetyl-1-(4-trifluoromethoxy-benzenesulfonyl)-piperazine-2-carboxylic acid [3-(4-hydroxy-phenyl)-propyl]-amide]	> 1	> 1
CCCc1ccc(CNC(=O)[C@H]2CN(C(C)=O)CCN2S(=O)(=O)c2ccc(OC(F)(F)F)cc2)cn1 [Example 718, (R)-4-acetyl-1-(4-trifluoromethoxy-benzenesulfonyl)-piperazine-2-carboxylic acid (6-propyl-pyridin-3-ylmethyl)-amide]	> 1	0.1 to 1
CC(=O)N1CCN(S(=O)(=O)c2ccc(OC(F)(F)F)cc2)[C@@H](C(=O)NCc2cnc(C)cn2)C1 [Example 719, (R)-4-acetyl-1-(4-trifluoromethoxy-benzenesulfonyl)-piperazine-2-carboxylic acid (5-methyl-pyrazin-2-ylmethyl)-amide]	> 1	> 1
CCCc1ccc(CNC(=O)[C@H]2CN(c3cnc4cncnc4n3)CCN2S(=O)(=O)c2ccc(OC(F)(F)F)cc2)cn1 [Example 720, (R)-4-pteridin-7-yl-1-(4-trifluoromethoxy-benzenesulfonyl)-piperazine-2-carboxylic acid (6-propyl-pyridin-3-ylmethyl)-amide]	< 0.1	< 0.1
Cc1cnc(CNC(=O)[C@H]2CN(c3cnc4cncnc4n3)CCN2S(=O)(=O)c2ccc(OC(F)(F)F)cc2)cn1 [Example 721, (R)-4-pteridin-7-yl-1-(4-trifluoromethoxy-benzenesulfonyl)-piperazine-2-carboxylic acid (5-methyl-pyrazin-2-ylmethyl)-amide]	> 1	> 1
CCCc1ccc(CNC(=O)[C@H]2CN(c3cnc4cncnc4n3)CCN2S(=O)(=O)c2ccc(OC(F)(F)F)cc2)cc1N [Example 722, (R)-4-pteridin-7-yl-1-(4-trifluoromethoxy-benzenesulfonyl)-piperazine-2-carboxylic acid 3-amino-4-propyl-benzylamide]	0.1 to 1	< 0.1
CCCc1ccc(CNC(=O)[C@H]2CN(c3cnc4cncnc4n3)CCN2S(=O)(=O)c2ccc(OC(F)(F)F)cc2)cc1O [Example 723, (R)-4-pteridin-7-yl-1-(4-trifluoromethoxy-benzenesulfonyl)-piperazine-2-carboxylic acid 3-hydroxy-4-propyl-benzylamide]	0.1 to 1	< 0.1
CCC(F)(F)c1ccc(CNC(=O)[C@H]2CN(c3cnc4cncnc4n3)CCN2S(=O)(=O)c2ccc(-c3ccccc3O)cc2)cc1 [Example 724, (R)-1-(2′-hydroxy-biphenyl-4-sulfonyl)-4-pteridin-7-yl-piperazine-2-carboxylic acid 4-(1,1-difluoro-propyl)-benzylamide]	< 0.1	< 0.1
CCC(F)(F)c1ccc(CNC(=O)[C@H]2CN(c3cnc4cncnc4n3)CCN2S(=O)(=O)c2ccc(-c3cccc(O)c3)cc2)cc1 [Example 725, (R)-1-(3′-hydroxy-biphenyl-4-sulfonyl)-4-pteridin-7-yl-piperazine-2-carboxylic acid 4-(1,1-difluoro-propyl)-benzylamide]	< 0.1	< 0.1
CCC(F)(F)c1ccc(CNC(=O)[C@H]2CN(c3cnc4cnccc4n3)CCN2S(=O)(=O)c2ccc([N+](=O)[O-])cc2)cc1 [Example 726, (R)-1-(4-nitro-benzenesulfonyl)-4-pyrido[3,4-b]pyrazin-2-yl-piperazine-2-carboxylic acid 4-(1,1-difluoro-propyl)-benzylamide]	< 0.1	< 0.1
CCC(F)(F)c1ccc(CNC(=O)[C@H]2CN(c3cnc4cnccc4n3)CCN2S(=O)(=O)c2ccc(-c3ccccc3)cc2)cc1 [Example 727, (R)-1-(biphenyl-4-sulfonyl)-4-pyrido[3,4-b]pyrazin-2-yl-piperazine-2-carboxylic acid 4-(1,1-difluoro-propyl)-benzylamide]	< 0.1	< 0.1
CCCc1ccc(CNC(=O)[C@H]2CN(c3ccc(C(=O)OC(C)(C)C)s3)CCN2S(=O)(=O)c2ccc(OC(F)(F)F)cc2)cc1 [Example 728, 5-[(R)-3-(4-propyl-benzylcarbamoyl)-4-(4-trifluoromethoxy-benzenesulfonyl)-piperazin-1-yl]-thiophene-2-carboxylic acid tert-butyl ester]	0.1 to 1	0.1 to 1
CCC(F)(F)c1ccc(CNC(=O)[C@H]2CN(c3cnc4cncnc4n3)CCN2S(=O)(=O)c2ccc3c(c2)CCC(CC(=O)O)CC3)cc1 (stereo partly drawn) [Example 729, (2-{(R)-2-[4-(1,1-difluoro-propyl)-benzylcarbamoyl]-4-pteridin-7-yl-piperazine-1-sulfonyl}-6,7,8,9-tetrahydro-5H-benzocyclohepten-7-yl)-acetic acid]	< 0.1	< 0.1
O=C(NCc1ccc(-c2ccccn2)s1)[C@H]1CN(c2cnc3cncnc3n2)CCN1S(=O)(=O)c1ccc(OC(F)(F)F)cc1 [Example 730, (R)-4-pteridin-7-yl-1-(4-trifluoromethoxy-benzenesulfonyl)-piperazine-2-carboxylic acid (5-pyridin-2-yl-thiophen-2-ylmethyl)-amide]	< 0.1	< 0.1
CCC(F)(F)c1ccc(CNC(=O)[C@H]2CN(c3cnc4cncnc4n3)CCN2S(=O)(=O)c2ccc(-c3ccccc3OCC(=O)O)cc2)cc1 [Example 731, (4′-{(R)-2-[4-(1,1-difluoro-propyl)-benzylcarbamoyl]-4-pteridin-7-yl-piperazine-1-sulfonyl}-biphenyl-2-yloxy)-acetic acid]	< 0.1	< 0.1
CCC(F)(F)c1ccc(CNC(=O)[C@H]2CN(c3cnc4cncnc4n3)CCN2S(=O)(=O)c2ccc(-c3cccc(OCC(=O)O)c3)cc2)cc1 [Example 732, (4′-{(R)-2-[4-(1,1-difluoro-propyl)-benzylcarbamoyl]-4-pteridin-7-yl-piperazine-1-sulfonyl}-biphenyl-3-yloxy)-acetic acid]	< 0.1	< 0.1
CCC(F)(F)c1ccc(CNC(=O)[C@H]2CN(C(=O)CNc3cccnc3)CCN2S(=O)(=O)c2ccc(OC(F)(F)F)cc2)cc1 [Example 733, (R)-4-[2-(pyridin-3-ylamino)-acetyl]-1-(4-trifluoromethoxy-benzenesulfonyl)-piperazine-2-carboxylic acid 4-(1,1-difluoro-propyl)-benzylamide]	0.1 to 1	0.1 to 1
CCC(F)(F)c1ccc(CNC(=O)[C@H]2CN(C(=O)CNc3ccn(C)n3)CCN2S(=O)(=O)c2ccc(OC(F)(F)F)cc2)cc1 [Example 734, (R)-4-[2-(1-methyl-1H-pyrazol-3-ylamino)-acetyl]-1-(4-trifluoromethoxy-benzenesulfonyl)-piperazine-2-carboxylic acid 4-(1,1-difluoro-propyl)-benzylamide]	0.1 to 1	0.1 to 1
CCC(F)(F)c1ccc(CNC(=O)[C@H]2CN(c3cnc4cnccc4n3)CCN2S(=O)(=O)c2ccc(C(F)(F)F)cc2)cc1 [Example 735, (R)-4-pyrido[3,4-b]pyrazin-2-yl-1-(4-trifluoromethyl-benzenesulfonyl)-piperazine-2-carboxylic acid 4-(1,1-difluoro-propyl)-benzylamide]	< 0.1	< 0.1
CCC(F)(F)c1ccc(CNC(=O)[C@H]2CN(c3cnc4cnccc4n3)CCN2S(=O)(=O)c2ccc(N(C)C)cc2)cc1 [Example 736, (R)-1-(4-dimethylamino-benzenesulfonyl)-4-pyrido[3,4-b]pyrazin-2-yl-piperazine-2-carboxylic acid 4-(1,1-difluoro-propyl)-benzylamide]	< 0.1	< 0.1
CCC(F)(F)c1ccc(CNC(=O)[C@H]2CN(c3cnc4cncnc4n3)CCN2S(=O)(=O)c2ccc(Br)s2)cc1 [Example 737, (R)-1-(5-bromo-thiophene-2-sulfonyl)-4-pteridin-7-yl-piperazine-2-carboxylic acid 4-(1,1-difluoro-propyl)-benzylamide]	< 0.1	< 0.1
CCC(F)(F)c1ccc(CNC(=O)[C@H]2CN(c3cnc4cncnc4n3)CCN2S(=O)(=O)c2cc3ccccc3s2)cc1 [Example 738, (R)-1-(benzo[b]thiophene-2-sulfonyl)-4-pteridin-7-yl-piperazine-2-carboxylic acid 4-(1,1-difluoro-propyl)-benzylamide]	< 0.1	< 0.1
CCC(F)(F)c1ccc(CNC(=O)[C@H]2CN(c3nc4cccnc4s3)CCN2S(=O)(=O)c2ccc(OC(F)(F)F)cc2)cc1 [Example 739, (R)-4-thiazolo[5,4-b]pyridin-2-yl-1-(4-trifluoromethoxy-benzenesulfonyl)-piperazine-2-carboxylic acid 4-(1,1-difluoro-propyl)-benzylamide]	< 0.1	< 0.1
